Laboratory results taken from patent US20170328922A1, “METHODS AND PRODUCTS FOR LABELLING LIPIDS” (UNIVERSITY OF SOUTH AUSTRALIA, priority 2014, published 2017).

Experiments:
[1] = Rhenium molecular probe-lipid overlay (dot blot); assay type: binding; parameters: key to interaction with Lysophosphatidic acid (dot blot): ✓ indicates a positive interaction; x indicates no interaction
Experimental: The experimental protocol probe-lipid overlay was as follows: 50 μM of each lipids was loaded on to PVDF membranes (Perkin Elmer, USA), which were then incubated with molecular probes. PhenCyano and PhenPyridyl were assessed against eleven lipids including; sphingomyelin (Cat # S0756, Sigma Aldrich, USA), sphingosine (Cat # S7049; Sigma Aldrich, USA), L-phosphatidylethanolamine (Cat # P7943, Sigma Aldrich, USA), monosialodanglioside (GM1; Cat # G7641, Sigma Aldrich, USA), oleoly-L-?-lysophosphatidic acid (Cat # L7260, Sigma Aldrich, USA), palmitic acid (Cat # P5917, Sigma Aldrich, USA), sphingomyelin (Cat # S0756, Sigma Aldrich, USA), sphingosine (Cat # S7049; Sigma Aldrich, USA), L-?-phosphatidylethanolamine (Cat # P7943, Sigma Aldrich, USA), monosialodanglioside (GM1; Cat # G7641, Sigma Aldrich, USA), progesterone (Cat #102722, MP Biomedical, USA), ceramide (Cat # C2137; Sigma Aldrich, USA), triacylglycerol mix C2-C10 (Cat #17810, Sigma Aldrich, USA) and cholesteryl acetate (Cat #151114; Sigma Aldrich, USA).
Lipids were dissolved in ethanol, methanol or isopropanol for loading depending on solubility. Following lipid loading, membranes were left to dry for 20-30 minutes, then they were washed for 10 minutes in cold 10% ethanol, before they were incubated with 10 μM solution of each Rhenium molecular probe in cold 10% ethanol for one hour. Membranes were than washed four times for 10 minutes in cold 10% ethanol prior to imaging. Imaging was performed on an Image Quant Las 4000 (GE, Sweden) luminescent image analyser, with the Rhenium molecular probe being detected by excitation at 460 nm using an epi-blue light source, and detected using an 575 nm ethidium bromide filter.

[2] = biological target: albumin (Homo sapiens, UniProt P02768); experiment: Rhenium probe overlay, Example 5; assay type: binding; conditions: neither ... nor ... reacted with the probe
Experimental: To determine the binding properties of tricarbonyl-(4-cyanophenyltretrazolato)-phenanthroline-rhenium (I) (Rhenium probe) to various lipids, Rhenium probe-lipid overlay was performed using either lipids spotted onto PDVF membranes (Perkin Elmer, USA) or lipid MicroStrips (Echelon Biosciences Inc., Salt Lake City, Utah). The membranes contained at least 100 pmoles of each lipid in individual spots (supplementary table 1) or 10 μL (each in PBS) of 10% (v/v) glycerol, 1% (v/v) CHAPS, 1% (w/v) SDS, 1% (v/v) Tween20, Ecydsone (10 μg/100 μL), cholesterol (10 μg/100 μL), progesterone (10 μg/100 μL), PBS, or 1% (v/v) ethanol; and were incubated with 0.5 mM of Rhenium probe in 1% (w/v) BSA/PBS for 40 minutes and then washed four times for 10 minutes in PBS. Imaging was performed on an Image Quant Las 4000 (GE, Sweden) luminescent image analyser, with the Rhenium probe being detected by excitation at 460 nm using an epi-blue light source, and detected using an 605 nm ethidium bromide filter.

[3] = tested on: Drosophila fat body tissue; experiment: Live staining and confocal imaging of explanted fat body tissue; assay type: cell-based
Experimental: All stocks were maintained in standard medium at 25° C. The yeast GAL4-UAS system was used for targeted gene expression (Brand and Perrimon, 1993). Fat-body specific expression of transgenes from the UAS were driven by CG-GAL4 (Asha et al., 2003). Transgenic UAS-Atg9RNAi stocks (#34901) and UAS-TorTED stocks (#7013) were obtained from the Bloomington Drosophila Stock Centre (Indiana University, IN, USA). Atg8aGFP was driven by an endogenous promoter (Kelso et al., 2004).
Bromophenol-blue was added to the fly media and used to define different developmental time points. […] Newly formed white pupae (0 h PF), were isolated onto moist filter paper and incubated at 25° C. for either two hours (+2 h PF) or four hours (+4 h PF).
Third instar larvae at −8 h PF were removed from standard media (normally feeding at this developmental stage) and placed on filter paper either soaked in 5% (w/v) sucrose (for amino acid deprivation), or 5% (w/v) tryptone pancreatic digest of casein (BD Bioscience USA; for carbohydrate deprivation), or soaked in water (for complete starvation). Larvae were incubated for 4-5 hours prior tissue isolation and imaging.
Fat body tissue was dissected into PBS from Drosophila larvae or pupae. The fat body tissue was either incubated with 10 μM tricarbonyl phenanthrolin (4-cyanophenyltretrazolato) Rhenium (I) in PBS for 15 minutes at room temperature, or LysoTracker® green (according to manufacturer instructions; Invitrogen, USA) and then mounted in carbomer-940 (Snowdrift farm, Tucson, USA) based optical coupling gel to prevent dehydration prior to imaging (Rothstein et al., 2006). For Oil Red O staining, fat body tissue was fixed in 4% (v/v) paraformaldehyde for 20 minutes, and incubated in 1/100 Oil Red 0 for 30 minutes and then washed in PBS before mounting in 80% glycerol.
A Ziess LSM710 META NLO confocal microscope (Zeiss, Germany), supplemented with a two-photon Mai-Tai® (tunable Ti:Sapphire femtosecond pulse laser, 710-920 nm, Spectra-Physics, Australia) was used for imaging. The images were acquired using a Plan-APOCHROMAT 63×/NA1.4 oil immersion objective. The Rhenium probe was excited at 830 nm using the two-photon pulse laser and detect at 600-654 nm. LysoTracker® green was imaged by excitation at 488 nm and detected at 497-558 nm. Atg8a-GFP was imaged with the Rhenium probe by excitation at 830 nm and resolved using spectral un-mixing using the Zen software package (based on spectral figure-printing of the two components). The Rhenium probe images and co-location analysis involved at least five separate images from five independent biological replicates, and one representative image from each treatment was selected for presentation (containing a minimum of 2 cells). For image quantification, two regions of interest (ROI) were selected at random with an area of 2500 μm^2 and the number of fluorescent puncta within the area counted, to give a minimum of 10 counts per treatment group. Comparison of means was performed by ANOVA with a Tukey post hoc tested in GraphPad Prism V.6.01 (USA).

Chain of albumin (P02768 25-609, species assumed): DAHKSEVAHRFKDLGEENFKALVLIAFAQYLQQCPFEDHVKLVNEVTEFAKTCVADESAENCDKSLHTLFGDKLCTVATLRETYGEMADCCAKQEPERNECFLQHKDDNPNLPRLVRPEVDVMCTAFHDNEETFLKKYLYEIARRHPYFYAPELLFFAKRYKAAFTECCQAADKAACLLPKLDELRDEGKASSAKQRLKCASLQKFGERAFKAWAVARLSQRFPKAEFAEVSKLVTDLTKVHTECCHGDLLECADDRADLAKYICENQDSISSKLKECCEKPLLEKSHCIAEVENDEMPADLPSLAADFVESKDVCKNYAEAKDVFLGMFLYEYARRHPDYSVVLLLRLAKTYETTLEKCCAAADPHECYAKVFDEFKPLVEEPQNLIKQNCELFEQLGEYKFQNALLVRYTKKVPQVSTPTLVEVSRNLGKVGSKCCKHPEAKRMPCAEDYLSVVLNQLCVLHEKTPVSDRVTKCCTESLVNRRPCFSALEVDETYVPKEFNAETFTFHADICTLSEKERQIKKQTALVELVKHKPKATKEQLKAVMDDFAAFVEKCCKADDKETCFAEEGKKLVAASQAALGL

With N#Cc1ccc(-c2nn[n]([Re](=[C]=O)(=[C]=O)=[C]=O)n2)cc1.c1cnc2c(c1)ccc1cccnc12 [PhenCyano, Triscarbonyl phenanthroline (4-cyanophenyltetrazolato)Rhenium(I)] the “interaction with Lysophosphatidic acid (dot blot)” value ([1]; 10 μM probe, 50 μM lipid on PVDF membrane) was “✓”, the “affinity towards lysophosphatidic acid, in words” value ([1]; FIG. 7) was “some affinity” and the reactivity with albumin [2] was “Neither”. For the same molecule, the “probe distribution in fat body” value ([3]; 0 h PF, 10 μM probe, 15 minutes) was “most of the Rhenium probe was still inside lipid droplets”, the “probe distribution in fat body” value ([3]; +2 h PF, 10 μM probe, 15 minutes) was “dramatic reduction in the amount of Rhenium probe interacting with lipid droplets” and the “vesicles staining with the probe that were also Atg8a-GFP positive” value ([3]; −4 h PF larvae starved (amino acid and sugar deprivation)) was “approximately 90±11%”. For the same molecule, the “probe distribution in fat body” value ([3]; −4 h PF, 10 μM probe, 15 minutes) was “interacted with the core of lipid droplets” and the “probe distribution in fat body” value ([3]; −8 h PF, dominant negative TorTED expression) was “almost all of the Rhenium probe in LysoTracker® green positive vesicles”.
